IC50 data for 25 compounds are collected here from patent US20030229053A1, “Compounds and methods for the treatment or prevention of flavivirus infections” (Shire BioChem Inc., priority 2001, published 2003).

Where only a bound is given, the exact number is not on record here.

HCV NS5B RNA-dependent RNA polymerase, sequence (P26663 2420-3010 limits assumed): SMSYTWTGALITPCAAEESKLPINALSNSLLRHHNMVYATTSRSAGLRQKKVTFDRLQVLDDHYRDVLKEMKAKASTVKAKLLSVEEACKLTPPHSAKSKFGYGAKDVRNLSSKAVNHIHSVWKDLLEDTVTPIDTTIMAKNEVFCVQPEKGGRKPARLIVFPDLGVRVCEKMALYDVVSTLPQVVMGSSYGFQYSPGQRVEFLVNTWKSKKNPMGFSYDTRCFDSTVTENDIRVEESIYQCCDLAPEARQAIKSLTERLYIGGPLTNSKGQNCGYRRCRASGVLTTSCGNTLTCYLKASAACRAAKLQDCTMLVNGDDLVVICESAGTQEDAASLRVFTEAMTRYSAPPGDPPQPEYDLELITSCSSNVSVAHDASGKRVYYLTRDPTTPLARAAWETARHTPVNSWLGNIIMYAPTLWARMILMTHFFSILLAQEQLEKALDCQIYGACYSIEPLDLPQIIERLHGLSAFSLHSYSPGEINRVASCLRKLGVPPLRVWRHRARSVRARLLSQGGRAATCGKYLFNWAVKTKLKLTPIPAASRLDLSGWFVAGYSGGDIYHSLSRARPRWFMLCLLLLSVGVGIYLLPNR

In the test the target is HCV NS5B RNA-dependent RNA polymerase (Hepatitis C virus genotype 1b, UniProt P26663). The experiment in a line: In vitro RNA-dependent RNA polymerase assay (Assay 1), polyA/oligo dT, TCA precipitation. The following applies: polyA/oligo dT template/primer, 200 ng NS5B, 2 h at 22° C.; read-out: RNA pol Assay 1 IC50 (μm). The class given is biochemical. As to the method:
Purification of Recombinant NS5B Using Fast Protein Liquid Chromatography (FPLC):
Soluble NS5B protein in the S3 fraction was diluted to lower the NaCl concentration to 300 mM, then it incubated batchwise with DEAE sepharose beads (Amersham-Pharmacia) for 2 hrs at 4° C., as described by Behrens et al. (1996). Unbound material was cleared by centrifugation for 15 min at 4° C., at 25,000 rpm using a SW41 rotor (Beckman). The supernatant was further diluted to lower the NaCl concentration to 200 mM and subsequently loaded, with a flow rate of 1 ml/min, on a 5 ml HiTrap® heparin column (Amersham-Pharmacia) connected to an FPLC® system (Amersham-Pharmacia). Bound proteins were eluted in 1 ml fractions, using a continuous NaCl gradient of 0.2 to 1 M, over a 25 ml volume. NS5B-containing fractions were identified by sodium dodecyl sulfate polyacrylamide gel electrophoresis (SDS-PAGE), followed by western blotting using the anti-NS5B antiserum at a dilution of 1:2000. Positive fractions were pooled and the elution buffer was exchanged against a 50 mM NaPO4 pH 7.0, 20% glycerol, 0.5% triton X-100 and 10 mM DTT, using a PD-10 column (Amersham-Pharmacia). The sample was then loaded onto a 1 ml HiTrap® SP column (Amersham-Pharmacia), with a flow rate of 0.1 ml/min. Bound proteins were eluted using a continuous 0 to 1 M NaCl gradient over a 15 ml volume. Eluted fractions were analyzed by SDS-PAGE and western blotting. Alternatively, proteins were visualized, following SDS-PAGE, by silver staining using the Silver Stain Plus kit (BioRad) as described by the manufacturer. […]
In vitro RNA-dependent RNA Polymerase Assays Used to Evaluate Biaryl Analogues (Assay 1):
RdRp assays were conducted using the homopolymeric template/primer polyA/oligo dT. All RdRp reactions were performed in a total volume of 50 μl, and in a basic buffer consisting of 20 mM Tris-HCl pH 7.5, 1 mM DTT, 50 mM NaCl, 5 mM MgCl2, 0.5 μCi […] (3000 Ci/mmol), 15 μM cold UTP and 20 U RNasin (Promega). Standard HCV RdRp reactions contained 200 ng of purified NS5B protein. PolyA RNAs (Amersham-Pharmacia) was resuspended at 400 ng/μl. The primer oligodT15 (Canadian life technologies) was diluted to a concentration of […] (7.6 ng/μl). Templates and primers were mixed volume to volume, denatured at 95° C. for 5 min and annealed at 37° C. for 10 min. Following a two hour incubation at 22° C., reactions were stopped by the addition of 100 μg of sonicated salmon sperm DNA (Life Technologies) and 1 ml of 10% trichloroacetic acid-0.5% tetrasodium pyrophosphate (TCA-PPi). Nucleic acids were precipitated at 4° C. for 30 min after which samples were filtered on GF/C glass microfiber filters (Millipore). Membranes were subsequently washed with 25 ml of a 1% TCA-0.1% PPi solution, then air dried. Incorporated radioactivity was quantified using a liquid scintillation counter (1450-Microbeta, Wallac). Results are shown in Table 1, in the column indicated as Assay 1.
On to `O=C(O)[C@H](Cc1ccccc1)N(Cc1ccc(-c2cccc(Cl)c2)o1)C(=O)c1ccccc1Cl` [compound #55, (2s)-2-{(2-Chloro-benzoyl)-[5-(3-chloro-phenyl)-furan-2-ylmethyl]-amino}-3-phenyl-propionic acid], for which the IC50 lay within 5 to 20 µM.
For `O=C(O)[C@H](Cc1ccccc1)N(Cc1ccc(-c2cccc(C(F)(F)F)c2)o1)C(=O)c1ccc(Cl)cc1Cl` [compound #56, (2s)-2-{(2,4-Dichloro-benzoyl)-[5-(3-trifluoromethyl-phenyl)-furan-2-ylmethyl]-amino}-3-phenyl-propionic acid], the IC50 was less than 5 µM.
The result for `O=C(O)[C@H](Cc1ccccc1)N(Cc1ccc(Br)o1)C(=O)c1ccc(Cl)cc1Cl` [compound #57, (2s)-2-[(5-Bromo-furan-2-ylmethyl)-(2,4-dichloro-benzoyl)-amino]-3-phenyl-propionic acid] reads 5 to 20 µM; that for `O=C(O)[C@H](Cc1ccccc1)N(Cc1ccc(-c2cc3ccccc3o2)o1)C(=O)c1ccc(Cl)cc1Cl` [compound #58, (2s)-2-[(5-Benzofuran-2-yl-furan-2-ylmethyl)-(2,4-dichloro-benzoyl)-amino]-3-phenyl-propionic acid], less than 5 µM.
Under `O=C(O)[C@H](Cc1ccccc1)N(Cc1ccc(-c2ccc(Br)cc2)o1)C(=O)c1ccc(Cl)cc1Cl` [compound #59, (2s)-2-[[5-(4-Bromo-phenyl)-furan-2-ylmethyl]-(2,4-dichloro-benzoyl)-amino]-3-phenyl-propionic acid] stands less than 5 µM; under `O=C(O)[C@H](Cc1ccccc1)N(Cc1ccc(-c2ccccc2Cl)o1)C(=O)c1ccc(Cl)cc1Cl` [compound #60, (2s)-2-[[5-(2-Chloro-phenyl)-furan-2-ylmethyl]-(2,4-dichloro-benzoyl)-amino]-3-phenyl-propionic acid], less than 5 µM; under `O=C(O)[C@H](Cc1ccccc1)N(Cc1ccc(-c2cc(C(F)(F)F)ccc2Cl)o1)C(=O)c1ccc(Cl)cc1Cl` [compound #61, (2s)-2-[[5-(2-Chloro-5-trifluoromethyl-phenyl)-furan-2-ylmethyl]-(2,4-dichloro-benzoyl)-amino]-3-phenyl-propionic acid], less than 5 µM.
Turning to `O=C(O)[C@H](Cc1ccccc1)N(Cc1ccc(-c2ccccc2[N+](=O)[O-])o1)C(=O)c1ccc(Cl)cc1Cl` [compound #62, (2s)-2-{(2,4-Dichloro-benzoyl)-[5-(2-nitro-phenyl)-furan-2-ylmethyl]-amino}-3-phenyl-propionic acid], the IC50 was less than 5 µM.
Under `O=C(O)C[C@H](Cc1ccccc1)N(Cc1ccc(-c2cccc(C(F)(F)F)c2)o1)C(=O)c1ccc(Cl)cc1Cl` [compound #63, (3s)-3-{(2,4-Dichloro-benzoyl)-[5-(3-trifluoromethyl-phenyl)-furan-2-ylmethyl]-amino}-4-phenyl-butyric acid] stands less than 5 µM.
The result for `O=C(O)[C@H](Cc1ccccc1)N(Cc1ccc(-c2ccc(Cl)c(Cl)c2)o1)C(=O)c1ccc(Cl)cc1Cl` [compound #65, (2s)-2-{(2,4-Dichloro-benzoyl)-[5-(3,4-dichloro-phenyl)-furan-2-ylmethyl]-amino}-3-phenyl-propionic acid] reads less than 5 µM.
Under `O=C(O)[C@H](Cc1ccccc1)N(Cc1ccc(-c2ccc(Cl)cc2Cl)o1)C(=O)c1ccc(Cl)cc1Cl` [compound #67, (2s)-2-{(2,4-Dichloro-benzoyl)-[5-(2,4-dichloro-phenyl)-furan-2-ylmethyl]-amino}-3-phenyl-propionic acid] stands less than 5 µM.
In the case of `O=C(O)[C@H](Cc1ccccc1)N(Cc1ccc(Br)o1)C(=O)c1ccc(Cl)cc1Br` [compound #68, (2s)-2-[(2-Bromo-4-chloro-benzoyl)-(5-bromo-furan-2-ylmethyl)-amino]-3-phenyl-propionic acid], the half-inhibitory concentration (IC50) is less than 5 µM.
The result for `O=C(O)[C@H](Cc1ccccc1)N(Cc1ccc(-c2ccc(F)c(Cl)c2)o1)C(=O)c1ccc(Cl)cc1Cl` [compound #69, (2s)-2-[[5-(3-Chloro-4-fluoro-phenyl)-furan-2-ylmethyl]-(2,4-dichloro-benzoyl)-amino]-3-phenyl-propionic acid] reads less than 5 µM.
For `O=C(O)[C@H](Cc1ccccc1)N(Cc1ccc(-c2ccc(Cl)c(F)c2)o1)C(=O)c1ccc(Cl)cc1Cl` [compound #70, (2s)-2-[[5-(4-Chloro-3-fluoro-phenyl)-furan-2-ylmethyl]-(2,4-dichloro-benzoyl)-amino]-3-phenyl-propionic acid], the IC50 is less than 5 µM.
On to `O=C(O)[C@H](Cc1ccccc1)N(Cc1ccc(Br)o1)C(=O)c1ccc(Cl)cc1I` [compound #71, (2s)-2-[(5-Bromo-furan-2-ylmethyl)-(4-chloro-2-iodo-benzoyl)-amino]-3-phenyl-propionic acid], for which the IC50 was less than 5 µM.
As to `CCOC(=O)c1ccccc1-c1ccc(CN(C(=O)c2ccc(Cl)cc2Cl)[C@@H](Cc2ccccc2)C(=O)O)o1` [compound #72, (2s)-2-(5-{[(1s-1-Carboxy-2-phenyl-ethyl)-(2,4-dichloro-benzoyl)-amino]-methyl}-furan-2-yl)-benzoic acid ethyl ester], the IC50 was less than 5 µM.
Consider `O=C(O)c1ccccc1-c1ccc(CN(C(=O)c2ccc(Cl)cc2Cl)[C@@H](Cc2ccccc2)C(=O)O)o1` [compound #73, (2s)-2-(5-{[(1-Carboxy-2-phenyl-ethyl)-(2,4-dichloro-benzoyl)-amino]-methyl}-furan-2-yl)-benzoic acid], for which the IC50 was less than 5 µM.
Under `O=C(O)[C@H](Cc1ccccc1)N(Cc1ccc(-c2nccs2)o1)C(=O)c1ccc(Cl)cc1Cl` [compound #74, (2s)-2-[(2,4-Dichloro-benzoyl)-(5-thiazol-2-yl-furan-2-ylmethyl)-amino]-3-phenyl-propionic acid] stands less than 5 µM; under `O=C(O)[C@H](Cc1ccccc1)N(Cc1ccco1)C(=O)c1ccc(Cl)cc1Cl` [compound #75, (2s)-2-[(2,4-Dichloro-benzoyl)-furan-2-ylmethyl-amino]-3-phenyl-propionic acid], 5 to 20 µM; under `O=C(O)c1cccc(-c2ccc(CN(C(=O)c3ccc(Cl)cc3Cl)[C@@H](Cc3ccccc3)C(=O)O)o2)c1` [compound #76, (2s)-3-(5-{[(1s-1-Carboxy-2-phenyl-ethyl)-(2,4-dichloro-benzoyl)-amino]-methyl}-furan-2-yl)-benzoic acid], less than 5 µM.
Under `O=C(O)c1ccc(-c2ccc(CN(C(=O)c3ccc(Cl)cc3Cl)[C@@H](Cc3ccccc3)C(=O)O)o2)cc1` [compound #77, (2s)-4-(5-{[(1s-1-Carboxy-2-phenyl-ethyl)-(2,4-dichloro-benzoyl)-amino]-methyl}-furan-2-yl)-benzoic acid] stands less than 5 µM.
On to `O=C(O)[C@H](Cc1ccccc1)N(Cc1ccc(-c2cccc(C(F)(F)F)c2)o1)C(=O)c1ccc(Cl)cc1Br` [compound #78, (2s)-2-{(2-Bromo-4-chloro-benzoyl)-[5-(3-trifluoromethyl-phenyl)-furan-2-ylmethyl]-amino}-3-phenyl-propionic acid], for which the IC50 was less than 5 µM.
Under `O=C(O)[C@H](Cc1ccccc1)N(Cc1ccc(-c2cc(F)cc(F)c2)o1)C(=O)c1ccc(Cl)cc1Cl` [compound #79, (2s)-2-{(2,4-Dichloro-benzoyl)-[5-(3,5-difluoro-phenyl)-furan-2-ylmethyl]-amino}-3-phenyl-propionic acid] stands less than 5 µM; under `Cc1cccc(-c2ccc(CN(C(=O)c3ccc(Cl)cc3Cl)[C@@H](Cc3ccccc3)C(=O)O)o2)c1` [compound #80, (2s)-2-[(2,4-Dichloro-benzoyl)-(5-m-tolyl-furan-2-ylmethyl)-amino]-3-phenyl-propionic acid], less than 5 µM.
On to `O=C(O)[C@H](Cc1ccccc1)N(Cc1ccc(-c2cccc(F)c2)o1)C(=O)c1ccc(Cl)cc1Cl` [compound #81, (2s)-2-{(2,4-Dichloro-benzoyl)-[5-(3-fluoro-phenyl)-furan-2-ylmethyl]-amino}-3-phenyl-propionic acid], for which the IC50 was less than 5 µM.

In general, IC50 refers to the point on the concentration scale where inhibition reaches its midpoint.
